We go through 23 molecules from PubChem BioAssay AID256 (DTP/NCI, 2004).

Molecules are shown by their SMILES. Where “and” joins values, the source holds several entries; their conditions need not be identical. Equal entries are not always repeated. Toxic doses and inconclusive results are not listed.

The subject of the assay is CD2F1 mice, L1210 leukemia ip, survival T/C. Put plainly: NCI In Vivo Anticancer Drug Screen. Data for tumor model L1210 Leukemia (intraperitoneal) in CD2F1 (CDF1) mice. To be noted: higher = longer survival. Put shortly: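 Ratio T/C, where T is the treated-group value and C the vehicle-dosed control value, from mice implanted with a transplantable tumor.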
[1] abbreviates: endpoint: mean survival time, dose: 100.0 mg/kg/injection, schedule: Q01DX001 (ip), vehicle: saline.
[2] abbreviates: endpoint: mean survival time, dose: 200.0 mg/kg/injection, schedule: Q01DX001 (ip), vehicle: saline.
[3] abbreviates: endpoint: mean survival time, dose: 100.0 mg/kg/injection, schedule: Q04DX003 (ip), vehicle: other.
Where [4] appears, read: endpoint: mean survival time, dose: 200.0 mg/kg/injection, schedule: Q04DX003 (ip), vehicle: other.
Where [5] appears, read: endpoint: mean survival time, dose: 400.0 mg/kg/injection, schedule: Q04DX003 (ip), vehicle: other.
The mark [6] stands for this setting: endpoint: mean survival time, dose: 25.0 mg/kg/injection, schedule: Q04DX003 (ip), vehicle: saline with Tween-80.
[7] abbreviates: endpoint: mean survival time, dose: 100.0 mg/kg/injection, schedule: Q01DX009 (ip), vehicle: saline with Tween-80.
The mark [8] stands for this setting: endpoint: mean survival time, dose: 200.0 mg/kg/injection, schedule: Q01DX009 (ip), vehicle: saline with Tween-80.
The mark [9] stands for this setting: endpoint: mean survival time, dose: 400.0 mg/kg/injection, schedule: Q01DX009 (ip), vehicle: saline with Tween-80.
The mark [10] stands for this setting: endpoint: mean survival time, dose: 400.0 mg/kg/injection, schedule: Q01DX001 (ip), vehicle: saline.
[11] abbreviates: endpoint: mean survival time, dose: 100.0 mg/kg/injection, schedule: Q04DX003 (ip), vehicle: saline with Tween-80.

For the molecule `O=P(O)(NCCCl)NCCCl`, the T/C was 404 % of control under setting [1]; 488 % of control under setting [2]; 116 % of control (endpoint: median survival time, dose: 25.0 mg/kg/injection, schedule: Q01DX001 (ip), vehicle: saline with Tween-80); 160 % of control (endpoint: median survival time, dose: 50.0 mg/kg/injection, schedule: Q01DX001 (ip), vehicle: saline with Tween-80); 356 % of control (endpoint: median survival time, dose: 75.0 mg/kg/injection, schedule: Q01DX001 (ip), vehicle: saline); 160 % of control and 185 % of control (endpoint: median survival time, dose: 100.0 mg/kg/injection, schedule: Q01DX001 (ip), vehicle: saline with Tween-80). Also, the T/C is, setting by setting: (endpoint: median survival time, dose: 100.0 mg/kg/injection, schedule: Q01DX001 (ip), vehicle: saline) 232 % of control and 410 % of control; (endpoint: median survival time, dose: 100.0 mg/kg/injection, schedule: Q01DX001 (iv), vehicle: saline) 219 % of control; (endpoint: median survival time, dose: 125.0 mg/kg/injection, schedule: Q01DX001 (ip), vehicle: saline) 202 % of control; (endpoint: median survival time, dose: 150.0 mg/kg/injection, schedule: Q01DX001 (ip), vehicle: saline) 205 % of control; (endpoint: median survival time, dose: 150.0 mg/kg/injection, schedule: Q01DX001 (iv), vehicle: saline) 86 % of control; (endpoint: median survival time, dose: 200.0 mg/kg/injection, schedule: Q01DX001 (ip), vehicle: saline with Tween-80) 191 % of control.
Consider `Cc1ccc(N2C(=O)CSC2=S)c(Br)c1`, for which the T/C reads like this: (endpoint: mean survival time, dose: 100.0 mg/kg/injection, schedule: Q01DX001 (ip), vehicle: saline with Tween-80) 101 % of control; (endpoint: mean survival time, dose: 200.0 mg/kg/injection, schedule: Q01DX001 (ip), vehicle: saline with Tween-80) 101 % of control; (endpoint: mean survival time, dose: 400.0 mg/kg/injection, schedule: Q01DX001 (ip), vehicle: saline with Tween-80) 106 % of control.
Consider `CCOn1nc(-c2ccccc2)oc1=O`, for which the T/C is 96 % of control under setting [3], 93 % of control under setting [4] and 116 % of control under setting [5].
Turning to `OC1(C2(O)c3ccccc3Oc3ccccc32)c2ccccc2Oc2ccccc21`, the T/C (endpoint: mean survival time, dose: 100.0 mg/kg/injection, schedule: Q01DX009 (ip), vehicle: saline) was 99 % of control and the T/C (endpoint: mean survival time, dose: 200.0 mg/kg/injection, schedule: Q01DX009 (ip), vehicle: saline) is 97 % of control.
Consider `O=[N+]([O-])c1ccc(N/N=C/C(Br)(Br)Br)c([N+](=O)[O-])c1`, for which the T/C under setting [6] is 102 % of control and the T/C (endpoint: mean survival time, dose: 50.0 mg/kg/injection, schedule: Q04DX003 (ip), vehicle: saline with Tween-80) was 100 % of control.
On to `OC1CCC(O)C2C3CCC(C3)C12` (configuration not stated), for which the T/C by setting is: under setting [7], 98 % of control; under setting [8], 100 % of control; under setting [9], 102 % of control.
As for `O=c1[nH]c(=S)[nH]c2ncn(C3OC(CO)C(O)C3O)c12` (configuration not stated), the T/C under setting [1] was 102 % of control, the T/C under setting [2] was 100 % of control and the T/C under setting [10] was 102 % of control.
Regarding `CCCCCCCCCCC(=O)CCCCCC`, the T/C runs as follows: under setting [3], 89 % of control; under setting [4], 92 % of control; under setting [5], 118 % of control.
As for `CC(=O)Nc1ccc(/C=N/NC(=O)COc2ccccc2)cc1`, the T/C is, setting by setting: under setting [7], 97 % of control; under setting [8], 94 % of control; under setting [9], 94 % of control.
In the case of `O=P(Oc1ccc(OP(=O)(N2CC2)N2CC2)cc1)(N1CC1)N1CC1`, the T/C (endpoint: mean survival time, dose: 58.0 mg/kg/injection, schedule: Q01DX001 (ip), vehicle: saline) was 119 % of control; the T/C (endpoint: mean survival time, dose: 133.0 mg/kg/injection, schedule: Q01DX001 (ip), vehicle: saline) was 152 % of control; the T/C under setting [2] is 179 % of control; the T/C (endpoint: mean survival time, dose: 300.0 mg/kg/injection, schedule: Q01DX001 (ip), vehicle: saline) is 89 % of control.
In the case of `COc1cc2c(cc1OC)C13CCN4CC5=CCOC(CC(=O)O)C(C5CC41)C3N2` (configuration not stated), the T/C reads like this: (endpoint: mean survival time, dose: 75.0 mg/kg/injection, schedule: Q01DX001 (ip), vehicle: other) 98 % of control; (endpoint: mean survival time, dose: 75.0 mg/kg/injection, schedule: Q01DX001 (ip), vehicle: saline) 101 % of control; (endpoint: mean survival time, dose: 150.0 mg/kg/injection, schedule: Q01DX001 (ip), vehicle: saline) 97 % of control.
As to `CC(=O)OCC1OC(n2nc(-c3ccccc3)c(=O)n(-c3ccccc3)c2=O)C(OC(C)=O)C(OC(C)=O)C1OC(C)=O` (configuration not stated), the T/C is 96 % of control (endpoint: mean survival time, dose: 3.8 mg/kg/injection, schedule: Q01DX005 (ip), vehicle: water); 96 % of control (endpoint: mean survival time, dose: 7.5 mg/kg/injection, schedule: Q01DX005 (ip), vehicle: water); 96 % of control (endpoint: mean survival time, dose: 15.0 mg/kg/injection, schedule: Q01DX005 (ip), vehicle: water); 101 % of control (endpoint: mean survival time, dose: 30.0 mg/kg/injection, schedule: Q01DX005 (ip), vehicle: water); 101 % of control (endpoint: mean survival time, dose: 60.0 mg/kg/injection, schedule: Q01DX005 (ip), vehicle: water).
Regarding `CCOC(=O)C(C#N)C1CNP(=O)(N(CCCl)CCCl)OC1` (configuration not stated), the T/C reads like this: (endpoint: mean survival time, dose: 31.25 mg/kg/injection, schedule: Q01DX001 (ip), vehicle: DMSO) 98 % of control; (endpoint: mean survival time, dose: 62.5 mg/kg/injection, schedule: Q01DX001 (ip), vehicle: DMSO) 98 % of control; (endpoint: mean survival time, dose: 125.0 mg/kg/injection, schedule: Q01DX001 (ip), vehicle: DMSO) 100 % of control; (endpoint: mean survival time, dose: 250.0 mg/kg/injection, schedule: Q01DX001 (ip), vehicle: DMSO) 100 % of control; (endpoint: mean survival time, dose: 500.0 mg/kg/injection, schedule: Q01DX001 (ip), vehicle: DMSO) 112 % of control; (endpoint: mean survival time, dose: 1000.0 mg/kg/injection, schedule: Q01DX001 (ip), vehicle: DMSO) 115 % of control.
Turning to `COc1ccc(C(=O)NS(=O)(=O)c2ccc(C)cc2)cc1`, the T/C is 103 % of control under setting [7], 98 % of control under setting [8] and 104 % of control under setting [9].
Take `O=C(O)C(CCc1ccccc1)N1CCOCC1` (configuration not stated): the T/C (endpoint: mean survival time, dose: 100.0 mg/kg/injection, schedule: Q04DX003 (ip), vehicle: saline) is 98 % of control; the T/C (endpoint: mean survival time, dose: 200.0 mg/kg/injection, schedule: Q04DX003 (ip), vehicle: saline) is 98 % of control; the T/C (endpoint: mean survival time, dose: 400.0 mg/kg/injection, schedule: Q04DX003 (ip), vehicle: saline) was 101 % of control.
`Nc1ccccc1SSc1ccccc1N`: the T/C runs as follows: under setting [11], 98 % of control; (endpoint: mean survival time, dose: 200.0 mg/kg/injection, schedule: Q04DX003 (ip), vehicle: saline with Tween-80) 90 % of control.
For the molecule `CCC1(c2ccc(O)cc2)C(=O)NC(=O)NC1=O`, the T/C by setting is: under setting [1], 96 % of control; under setting [2], 89 % of control; under setting [10], 96 % of control.
Consider `C[N+](C)(C)C1(Cc2ccc(Br)cc2)c2ccccc2-c2ccccc21`, for which the T/C runs as follows: (endpoint: mean survival time, dose: 6.25 mg/kg/injection, schedule: Q04DX003 (ip), vehicle: saline with Tween-80) 88 % of control; (endpoint: mean survival time, dose: 12.5 mg/kg/injection, schedule: Q04DX003 (ip), vehicle: saline with Tween-80) 88 % of control; under setting [6], 87 % of control; under setting [11], 92 % of control.
Turning to `CC(C)(C[NH-])C[NH-].[Cl][Pt+2][Cl]`, the T/C (endpoint: median survival time, dose: 0.2 mg/kg/injection, schedule: Q04DX003 (ip), vehicle: water) was 118 % of control and 110 % of control and 111 % of control.
For `COc1ccc(C(=O)NCCc2ccc(OC)c(OC)c2)cc1O`, the T/C reads like this: (endpoint: mean survival time, dose: 12.5 mg/kg/injection, schedule: Q01DX009 (ip), vehicle: other) 100 % of control; (endpoint: mean survival time, dose: 25.0 mg/kg/injection, schedule: Q01DX009 (ip), vehicle: other) 94 % of control; (endpoint: mean survival time, dose: 50.0 mg/kg/injection, schedule: Q01DX009 (ip), vehicle: other) 96 % of control; (endpoint: mean survival time, dose: 100.0 mg/kg/injection, schedule: Q01DX009 (ip), vehicle: other) 90 % of control; (endpoint: mean survival time, dose: 200.0 mg/kg/injection, schedule: Q01DX009 (ip), vehicle: other) 96 % of control.
Take `CCN1CC2CCC(C(=O)O)(C2)C1=O` (configuration not stated): the T/C by setting is: under setting [1], 98 % of control; under setting [2], 106 % of control; under setting [10], 102 % of control.
Turning to `OC(COc1ccccc1Cl)COc1ccccc1Cl`, the T/C is 101 % of control (endpoint: mean survival time, dose: 100.0 mg/kg/injection, schedule: Q04DX003 (ip), vehicle: saline + alcohol); 95 % of control (endpoint: mean survival time, dose: 200.0 mg/kg/injection, schedule: Q04DX003 (ip), vehicle: saline + alcohol); 95 % of control (endpoint: mean survival time, dose: 400.0 mg/kg/injection, schedule: Q04DX003 (ip), vehicle: saline + alcohol).
As for `CC1(C#N)CCC(=O)N1` (configuration not stated), the T/C is, setting by setting: under setting [1], 95 % of control; under setting [2], 95 % of control; under setting [10], 93 % of control.
